Laboratory results: patent US20140018537A1, “GPR119 AGONIST” (NIPPON CHEMIPHAR CO., LTD., priority 2008, published 2014)

tested on: not given; assay: not given; conditions: not given

First: CCOC(=O)N1CCC(c2ccc(COc3ccc(S(C)(=O)=O)cc3)nc2)CC1 [Example 43, Ethyl 4-[2-(4-methanesulfonylphenoxymethyl)pyridin-5-yl]piperidine-1-carboxylate]
Second: CC(C)COC(=O)N1CCC(c2ccc(COc3ccc(S(C)(=O)=O)cc3)nc2)CC1 [Example 44, Isobutyl 4-[2-(4-methanesulfonylphenoxymethyl)pyridin-5-yl]piperidine-1-carboxylate]
The melting point of the first is higher: 119 to 121 °C for the first, 114 to 117 °C for the second.

First: CCCCCc1cnc(N2CCC(c3ccc(COc4ccc(C#N)c(F)c4)nc3)CC2)nc1 [Example 54, 2-[4-[2-(4-Cyano-3-fluorophenoxymethyl)pyridin-5-yl]piperidin-1-yl]-5-pentylpyrimidine]
Second: CCc1cnc(N2CCC(c3ccc(COc4ccc(C#N)c(F)c4)nc3)CC2)nc1 [Example 52, 2-[4-[2-(4-Cyano-3-fluorophenoxymethyl)pyridin-5-yl]piperidin-1-yl]-5-ethylpyrimidine]
The melting point of the first is lower: 92 to 94 °C for the first, 129 to 131 °C for the second.

Compared with `CCCCCc1cnc(N2CCC(c3ccc(COc4ccc(S(C)(=O)=O)cc4)nc3)CC2)nc1` [Example 50, 2-[4-[2-(4-Methanesulfonylphenoxymethyl)pyridin-5-yl]piperidin-1-yl]-5-pentylpyrimidine], `CCCc1cnc(N2CCC(c3ccc(COc4ccc(S(C)(=O)=O)cc4)nc3)CC2)nc1` [Example 49, 2-[4-[2-(4-Methanesulfonylphenoxymethyl)pyridin-5-yl]piperidin-1-yl]-5-propylpyrimidine] is higher in melting point: 154 to 157 °C for the first, 164 to 166 °C for the second.

First: COc1cc(S(C)(=O)=O)ccc1OCc1ccc(C2CCN(C(=O)OC(C)(C)C)CC2)cn1 [Example 26, tert-Butyl 4-[2-(4-methanesulfonyl-2-methoxyphenoxymethyl)pyridin-5-yl]piperidine-1-carboxylate]
Second: CC(C)(C)OC(=O)N1CCC(c2ccc(COc3ccc(NS(C)(=O)=O)cc3)nc2)CC1 [Example 35, tert-Butyl 4-[2-(4-methanesulfonylaminophenoxymethyl)pyridin-5-yl]piperidine-1-carboxylate]
The melting point of the first is lower: 135 to 138 °C for the first, 171 to 173 °C for the second.

Work on `CC(C)(C)OC(=O)N1CCC(c2ccc(COc3ccc([N+](=O)[O-])cc3)nc2)CC1` [Example 33, tert-Butyl 4-[2-(4-nitrophenoxymethyl)pyridin-5-yl]-piperidine-1-carboxylate] yielded a melting point of 149 to 150 °C.

target: T1, human GPR119 (Homo sapiens, UniProt Q8TDV5); assay: Intracellular cAMP increase in human GPR119 introduced cells (HitHunter cAMP XS+ Assay); assay type: cell-based; conditions: Table 17; method similar to Example 86; hGPR119 stable cells, intracellular cAMP
T1 construct: expressed in transfected cells
T1 sequence (Q8TDV5 1-335): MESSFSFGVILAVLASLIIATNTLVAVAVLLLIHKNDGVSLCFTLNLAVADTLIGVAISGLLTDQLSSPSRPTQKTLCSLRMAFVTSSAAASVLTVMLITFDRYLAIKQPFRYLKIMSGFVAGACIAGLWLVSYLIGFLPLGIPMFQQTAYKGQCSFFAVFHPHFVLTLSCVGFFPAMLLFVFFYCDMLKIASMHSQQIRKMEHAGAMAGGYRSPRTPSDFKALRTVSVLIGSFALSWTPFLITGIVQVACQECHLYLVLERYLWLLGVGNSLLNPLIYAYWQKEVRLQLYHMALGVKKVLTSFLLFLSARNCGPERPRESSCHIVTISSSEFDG
From the text: The GPR119 agonist effect was studied by measuring the effect of an analyte on increase of intracellular amount of cAMP in human GPR119 introduced cells. The testing method is described below.
(1) Construction of the Stable Cell Line Expressing Human G Protein-Coupled-Receptor 119 (hGPR119) Human GPR119 gene (NM 178471) is purchased from American Type Culture Collection (ATCC No. 10807349). Hind III site-added forward side primer ([…]: sequence No. 1) and Apa I site-added reverse side primer ([…]: sequence No. 2) are designed. The target gene is amplyfied by a polymerase chain reaction (PCR) method using KOD-Plus-Ver. 2 (TOYOBO #KOD-211). PCR is conducted by repeating three steps consisting of the step of 98° C.-10 seconds, the step of 55° C.-30 seconds, and the step of 68° C.-1 minute and 10 seconds in 35 cycles. The amplified PCR product is inserted into pcDNA5/FRT/TO (Invitrogen #V6520-20) plasmid. Cells, which can constantly express the target gene with tetracycline, are constructed using Flp-In T-REx-systen (invitorogen).
(2) Measurement of Intracellular Cyclic Adenosine Monophosphate (cAMP)
The hGPR119 introduced cells prepared in (1) are plated on a 96-well plate using Dulbecco's Modified Eagle Medium containing heat-inactived 10% fetal bovine serum. After incubation of 24 hours, tetracyclin (invitrogen #Q10019) is added to the culture medium to induce hGPR119 gene expression. After further incubation of 24 hours, the cells are stimulated with 0.5 mM 3-ISOBUTYL-1-METHYLXANTHINE (Sigma #17018) phosphate buffer containing the analyte at 37° C. for 30 minutes. The amount of the intracellular cAMP is measured by using FLUOstar Optima (BMG LABTECH) according to the protocol of HitHunter™ cAMP XS+Assay (GE Healthcare #90007503) to give the agonist activity of the analyte to the GPR119 receptor.
(1) Construction of the Stable Cell Line Expressing Human G-Protein Coupled Receptor 119 (hGPR119) hGPR119 gene (NM 178471) was purchased from American Type Culture Collection (ATCC No. 10807349). The forward primer that was added a HindIII site ([…] (sequence number 1)), and the reverse primer that was added an ApaI site ([…] (sequence number 2)) were designed, the target gene was amplified by polymerase chain reaction (PCR) using a KOD-Plus-Ver.2 (TOYOBO #KOD-211). PCR was repeated 3 steps (98° C. for 10 sec, 55° C. for 30 sec, 68° C. for 1 min 15 sec) by 35 cycles. Amplified PCR product was inserted in pcDNA5/FRT/TO (Invitrogen #V6520-20), and the stable cell line that expresses target gene when induced with tetracycline was created using the Flp-In T-Rex system (Invitrogen).
(2) Measuring Method of Intracellular Cyclic Adenosine Monophosphate (cAMP) hGPR119 stable cells made by above-mentioned (1) were plated on 96 well plates in Dulbecco's Modified Eagle Medium containing 10% heat-inactivated FBS. After 24 hours, the hGPR119 expression was induced by adding medium containing tetracycline (Invitrogen #Q10019) and incubating for another 24 hours. Following incubation, cells were stimulated by 0.5 mM 3-ISOBUTYL-1-METHYLXANTHINE (Sigma #17018) phosphate buffered saline containing test compound for 30 minutes at 37° C. Agonist activity of test compound to the GPR119 receptor was estimated by measuring the intracellular cAMP concentration using a Fluostar optima plate reader (BMG LABTECH) according to the manufacturer's protocol of the HitHunter™ cAMP XS+Assay (GE Healthcare #90007503).
The examination was performed by the method similar to Example 86 (Pharmacological experiment 1)-(1), -(2).

Compared with `Cc1cc(S(C)(=O)=O)ccc1OCc1ccc(C2CCN(C(=O)OC(C)(C)C)CC2)cn1` [Example 22, tert-Butyl 4-[2-(4-methanesulfonyl-2-methylphenoxymethyl)pyridin-5-yl]piperidine-1-carboxylate], `CC(C)(C)OC(=O)N1CCC(c2ccc(COc3ccc(S(C)(=O)=O)cc3F)nc2)CC1` [Example 12, tert-Butyl 4-[2-(2-fluoro-4-methanesulfonylphenoxymethyl)pyridin-5-yl]piperidine-1-carboxylate] is 2.3-fold higher in EC50: 24 nM for the first, 54.7 nM for the second. The first is the more potent here.

`CC(C)(C)OC(=O)N1CCC(c2cnc(COc3ccc(S(C)(=O)=O)cc3)c(Cl)c2)CC1` [Example 71, tert-Butyl 4-[3-chloro-2-(4-methanesulfonylphenoxymethyl)pyridin-5-yl]piperidine-1-carboxylate] and `CC(C)(C)OC(=O)N1CCC(c2cnc(COc3ccc(S(C)(=O)=O)cc3)c(F)c2)CC1` [Example 75, tert-Butyl 4-[3-fluoro-2-(4-methanesulfonylphenoxymethyl)pyridin-5-yl]piperidine-1-carboxylate] are within 1.5-fold of each other in EC50: 29.3 nM for the first, 22.4 nM for the second.

Compared with `CCc1cnc(N2CCC(c3ccc(COc4ccc(-n5cnnn5)cc4)nc3)CC2)nc1` [Example 51, 5-Ethyl-2-[4-[2-[4-(tetrazol-1-yl)phenoxymethyl]pyridin-5-yl]piperidin-1-yl]pyrimidine], `CC(C)(C)OC(=O)N1CCC(c2ccc(COc3ccc(-n4cnnn4)cc3)nc2)CC1` [Example 17, tert-Butyl 4-[2-[4-(tetrazol-1-yl)phenoxymethyl]pyridin-5-yl]piperidine-1-carboxylate] is 7.6-fold lower in EC50: 257 nM for the first, 34 nM for the second. The second is the more potent here.

`CC(C)(C)OC(=O)N1CCC(c2ccc(CSc3ccc(S(C)(=O)=O)cc3)nc2)CC1` [Example 84, tert-Butyl 4-[2-(4-methanesulfonylphenylthiomethyl)pyridin-5-yl]piperidine-1-carboxylate] and `CC(C)(C)OC(=O)N1CCC(c2ccc(CCc3ccc(S(C)(=O)=O)cc3)nc2)CC1` [Example 79, tert-Butyl 4-[2-[2-(4-methanesulfonylphenyl)ethyl]pyridin-5-yl]piperidine-1-carboxylate] are within 1.5-fold of each other in EC50: 128 nM for the first, 142 nM for the second.

`Cc1cc(S(C)(=O)=O)ccc1OCc1ncc(C2CCN(C(=O)OC(C)(C)C)CC2)cc1C` [Example 82, tert-Butyl 4-[2-(4-methanesulfonyl-2-methylphenoxymethyl)-3-methylpyridin-5-yl]piperidine-1-carboxylate] and `Cc1cc(C2CCN(C(=O)OC(C)(C)C)CC2)cnc1COc1ccc(S(C)(=O)=O)cc1Br` [Example 81, tert-Butyl 4-[2-(2-bromo-4-methanesulfonylphenoxymethyl)-3-methylpyridin-5-yl]piperidine-1-carboxylate] are within 1.5-fold of each other in EC50: 58.8 nM for the first, 39.2 nM for the second.

Compared with `CC(C)(C)OC(=O)N1CCC(c2ccc(COc3ccc(-n4cnnn4)cc3F)nc2)CC1` [Example 37, tert-Butyl 4-[2-[2-fluoro-4-(tetrazol-1-yl)phenoxymethyl]pyridin-5-yl]piperidine-1-carboxylate], `Cc1cc(C2CCN(C(=O)OC(C)(C)C)CC2)cnc1COc1ccc(-n2cnnn2)cc1F` [Example 83, tert-Butyl 4-[2-[2-fluoro-4-(tetrazol-1-yl)phenoxymethyl]-3-methylpyridin-5-yl]piperidine-1-carboxylate] is 3.7-fold lower in EC50: 80.6 nM for the first, 21.9 nM for the second.

Compared with `CC(C)(C)OC(=O)N1CCC(c2ccc(COc3ccc(S(C)(=O)=O)c(F)c3)nc2)CC1` [Example 18, tert-Butyl 4-[2-(3-fluoro-4-methanesulfonylphenoxymethyl)pyridin-5-yl]piperidine-1-carboxylate], `CC(C)(C)OC(=O)N1CCC(c2ccc(COc3ccc(S(C)(=O)=O)cc3Cl)nc2)CC1` [Example 25, tert-Butyl 4-[2-(2-chloro-4-methanesulfonylphenoxymethyl)pyridin-5-yl]piperidine-1-carboxylate] is 4-fold lower in EC50: 85.4 nM for the first, 21.2 nM for the second.

`CC(C)(C)OC(=O)N1CCC(c2ccc(COc3ccc(S(N)(=O)=O)cc3)nc2)CC1` [Example 21, tert-Butyl 4-[2-(4-sulfamoylphenoxymethyl)pyridin-5-yl]piperidine-1-carboxylate] and `CC(C)(C)OC(=O)N1CCC(c2cnc(COc3ccc(S(C)(=O)=O)cc3)c(C(F)(F)F)c2)CC1` [Example 73, tert-Butyl 4-[2-(4-methanesulfonylphenoxymethyl)-3-trifluoromethylpyridin-5-yl]piperidine-1-carboxylate] are within 1.5-fold of each other in EC50: 59.3 nM for the first, 48 nM for the second.

same assay, conditions: hGPR119 introduced cells, cAMP

In the case of `Cc1cc(C2CCN(C(=O)OC(C)(C)C)CC2)cnc1COc1ccc(-n2cnnn2)cc1F` [Example 83, tert-Butyl 4-[2-[2-fluoro-4-(tetrazol-1-yl)phenoxymethyl]-3-methylpyridin-5-yl]piperidine-1-carboxylate], the “GPR119 agonist effect (in words)” value is reported as “excellent GPR119 agonist effect”.
In the case of `CC(C)(C)OC(=O)N1CCC(c2ccc(COc3ccc(S(C)(=O)=O)cc3Cl)nc2)CC1` [Example 25, tert-Butyl 4-[2-(2-chloro-4-methanesulfonylphenoxymethyl)pyridin-5-yl]piperidine-1-carboxylate], the “GPR119 agonist effect (in words)” value is reported as “excellent GPR119 agonist effect”.
